Molecules are shown by their SMILES. pKi: −log10 of the molar value.

These results are taken from ChEMBL document CHEMBL1130856, “A new series of cyclic amino acids as inhibitors of S-adenosyl L-methionine synthetase” (Bioorg Med Chem Lett, 1998).

Test [1] has as its target T1, S-adenosylmethionine synthase isoform type-1 (Rattus norvegicus, UniProt P13444). The test is described as follows: Compound was evaluated for its inhibitory activity against recombinant S-adenosyl L-Methionine synthetase (alpha-isoform) in rat liver.
Test [2] deals with T1, S-adenosylmethionine synthase isoform type-1. The test is described as follows: Compound was evaluated for its inhibitory activity against recombinant S-adenosyl L-Methionine synthetase (alpha-isoform) in rat liver; No significant activity.

T1 sequence (P13444 whole entry, canonical isoform): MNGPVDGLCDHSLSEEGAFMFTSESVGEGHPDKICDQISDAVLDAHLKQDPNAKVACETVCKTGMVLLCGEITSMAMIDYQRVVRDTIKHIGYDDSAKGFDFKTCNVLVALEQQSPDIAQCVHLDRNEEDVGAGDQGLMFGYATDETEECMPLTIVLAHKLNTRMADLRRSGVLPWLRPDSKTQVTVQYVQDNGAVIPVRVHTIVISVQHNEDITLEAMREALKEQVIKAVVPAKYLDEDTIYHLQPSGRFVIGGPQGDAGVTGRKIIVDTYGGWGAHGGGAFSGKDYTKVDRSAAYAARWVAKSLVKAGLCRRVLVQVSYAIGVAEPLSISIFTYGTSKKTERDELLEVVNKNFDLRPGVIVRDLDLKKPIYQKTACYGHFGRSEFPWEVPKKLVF

For orientation: pKi means the negative decadic logarithm of the Ki, by convention in mol/L. On to `CO/C=C\[C@H](N)C(=O)O`, for which the negative logarithm of the Ki (pKi) in test [1] was 4.25.
In the case of `NC1(C(=O)O)CCOCC1`, the pKi in test [1] is 3.00.
`N[C@]1(C(=O)O)CCSC1`: the negative-log Ki (pKi) in test [1] was 2.98. Besides, the Ki entry in test [2] was “Not Active”.
For `N[C@]1(C(=O)O)CCOC1`, in that order: 3.12 and “Not Active”.
Regarding `NC1(C(=O)O)CCSCC1`, the negative logarithm of the Ki (pKi) in test [1] is 2.52.
The same measure, in the same setting: then `NC1(C(=O)O)CCCC1` [CYCLOLEUCINE], with 3.29.
